# From PMC8583042, “New Hybrid Compounds Combining Fragments of Usnic Acid and Thioether Are Inhibitors of Human Enzymes TDP1, TDP2 and PARP1” (International Journal of Molecular Sciences, 2021)
# Legend:
# [1] = EZ4U colorimetric cytotoxicity test, HEK293A; assay type: cell-based; details: human
# Text: (§1) The low intrinsic cytotoxicity of the additional drug component in the clinically used anticancer cocktails with traditional drugs is very important for treatment. This approach in chemotherapy can reduce the potential resulting toxic load on the body in the case of a combined action of these inhibitors on the activity of several targets. […] The effects of the tested compounds on cell survival are shown on Figure 4 and the CC50 values for three cell lines are shown in Table 1. The intrinsic cytotoxicity of a number of the studied compounds is quite high, namely, they have close IC50 values against the TDP1 and CC50 values on one or several studied cell lines. Most of the compounds generally were more toxic for the HEK293FT and HeLa cell lines than for the HEK293A cell line (Table 1 and Figure 4). The cytotoxicity of the three leader compounds, 7g, 10a, and 7h, was quite high. […] Compound 10b was one of the least toxic among the ten tested compounds.
# (§2) Cytotoxicity of the compounds was examined against human cell lines HEK293A (human embryonic kidney)—WT, TDP1 deficient (Tdp1-/-), PARP1 deficient (PARP1-/-), and HeLa (cervical cancer) using an EZ4U colorimetric test (Biomedica, Vienna, Austria). The HEK293A cell line was obtained from Thermo Fisher Scientific (Waltham, MA, USA), and the HeLa cell line was obtained from the Russian Cell Culture Collection (RCCC) Institute of Cytology RAS, St. Petersburg, Russia. The cells were grown in DMEM/F12 medium (Gibco, Thermo Fisher Scientific, Waltham, MA, USA), with 1x GlutaMAX (Gibco, Thermo Fisher Scientific, Waltham, MA, USA), 50 IU/mL penicillin, 50 μg/mL streptomycin (MP Biomedicals), and in the presence of 10% fetal bovine serum (Biolot, Saint-Petersburg, Russia) in a 5% CO2 atmosphere. Cells were grown in the presence of 1% DMSO in the control wells. After the formation of a 30–50% monolayer, the tested compounds were added to the medium, and the cell culture was monitored for 3 days. The values were normalized to their own control in each case. At least three independent experiments were carried out. The 50% cytotoxic concentration (CC50) was defined as the compound concentration that reduced the cell viability by 50% when compared to the untreated controls. The compound concentration that caused 50% cell growth inhibition was determined using OriginPro 8.6.0 software (OriginLab, Northampton, MA, USA). The measurements were carried out in three independent experiments.
# [2] = system: HeLa cells; experiment: EZ4U colorimetric cytotoxicity test, HeLa; assay type: cell-based, human; details: Homo sapiens; HeLa, only Tpc
# Text: as §1, §2
# [3] = system: HeLa cells; experiment: Cytotoxicity of the combination of 10a and topotecan on HeLa cells; assay type: cell-based, human; details: Homo sapiens; HeLa, Tpc titrated with fixed 5 μM 10a; read-out: CC50 of Tpc with 10a
# Text: TDP1 is able to cleave the TOP1–DNA complex, thus preventing the action of Tpc and decreasing the efficiency of this clinically used drug. The inhibition of TDP1 activity can increase the efficiency of Tpc. Next, we checked the cytotoxic effect of the combination of Tpc and examined the TDP1 inhibitors compared to Tpc alone on HeLa cells and HEK293 cells.
# We observed the suppressed cell growth in the joint presence of the TDP1 inhibitor and Tpc on HeLa cells compared to Tpc alone (Figure 5). We observed the synergistic effect both when we titrated 10a with addition of fixed Tpc (1 μM or 2 μM) and vice versa when we titrated Tpc with addition of fixed 10a (5 μM). […] The CC50 value of Tpc decreased from 2 μM (only Tpc) to 0.7 μM (Tpc with 5 μM 10a).
# as §2, with “The 50% cytotoxic concentration (CC50) was defined as the compound concentration that reduced the cell viability by 50% when compared to the untreated controls.” left out, “The measurements were carried out in three independent experiments.” left out
# [4] = Colorimetric cytotoxicity test, HEK293A PARP1-/-; assay type: cell-based; details: human, PARP1-/- HEK293A cells; PARP1-/- HEK293A cell line; read-out: CC50 of Tpc
# Text: In our previous works, we checked the cytotoxic effect of Tpc and the TDP1 inhibitors—monoterpene 3-carene-derived compounds [48, 49] and UA combined with monoterpenoids, measured separately and jointly with Tpc—using a panel of HEK293FT and HEK293A Tdp1 knockout isogenic clones. […] The data on the HEK293FT mutants were of low reproducibility, which is why we decided to change the basic cell line to HEK293A [49]. In this work, we created new PARP1-/- HEK293A cells using the CRISPR–Cas9 approach (Figure S27). […] We checked the intrinsic cytotoxicity of the leader compound (10a) on the HEK293 wild type and TDP1-/- and PARP1-/- cell lines using a colorimetric test (Figure 6). […] There was no difference between the WT and mutant cells.
# Cytotoxicity of the compounds was examined against human cell lines HEK293A (human embryonic kidney)—WT, TDP1 deficient (Tdp1-/-), PARP1 deficient (PARP1-/-), and HeLa (cervical cancer) using an EZ4U colorimetric test (Biomedica, Vienna, Austria). […] After the formation of a 30–50% monolayer, the tested compounds were added to the medium, and the cell culture was monitored for 3 days. […] The compound concentration that caused 50% cell growth inhibition was determined using OriginPro 8.6.0 software (OriginLab, Northampton, MA, USA). […]
# [5] = target: T1, TDP1 (Homo sapiens, UniProt Q9NUW8); experiment: Real-time fluorescence assay of TDP1 activity; assay type: biochemical; details: real-time fluorescent assay, 1.5 nM TDP1, 50 nM oligonucleotide; read-out: IC50 (TDP1)
# T1 construct: made in house; host or cells: E. coli
# Text: We tested UA and all 14 newly synthesized UA derivatives for their TDP1 inhibitory properties by measuring their IC50 values using a real-time fluorescent assay. […] Compounds 10a,b are sulfoxide analogs of 7g,h.
# (§3) Human recombinant tyrosyl-DNA phosphodiesterase 1 (TDP1) and human recombinant poly(ADP-ribose)-polymerase1 (PARP1) were expressed in the E. coli system and purified as described.
# The biosensor (5′-[FAM] AAC GTC AGGGTC TTC C [BHQ]-3′) was synthesized in the Laboratory of Nucleic Acid Chemistry at the Institute of Chemical Biology and Fundamental Medicine (Novosibirsk, Russia) and was used for TDP1 enzyme activity real-time fluorescence detection. The reaction mixture (200 μL) contained a TDP1 reaction buffer (50 mM Tris-HCl, pH 8.0, 50 mM NaCl, and 7 mM β-mercaptoethanol), 50 nM oligonucleotide, varied concentrations of the tested compounds, and purified TDP1 in a final concentration 1.5 nM. The reaction mixtures were incubated at a constant temperature of 26 °C in a POLARstar OPTIMA fluorimeter (BMG LABTECH, GmbH, Ortenberg, Germany). Fluorescence intensity was measured (Ex485/Em520 nm) every 1 min for 10 min. The average values of the half maximal inhibitory concentration (IC50) were determined using an eleven-point concentration response curve and calculated using MARS Data Analysis 2.0 (BMG LABTECH). The 50% inhibitory concentration (IC50) was defined as the concentration of the compound that inhibited 50% of the enzyme activity when compared to the untreated controls. At least three independent experiments were carried out to obtain the IC50 values. To determine the kinetic parameters of the TDP1 enzymatic reaction, the apparent maximum rate of enzymatic reaction (Vmax), Michaelis constant (KM), possible inhibition mechanism, and steady-state kinetic experiments were carried out at 5 fixed concentrations of the substrate, with variation in the inhibitor concentrations. The standard reaction mixtures (200 μL) contained reaction buffer components; 50 nM, 100 nM, 200 nM, 500 nM, or 1000 nM substrate; an inhibitor; and 1.5 nM recombinant human TDP1. The initial kinetic curves were obtained in three independent experiments and statistically processed in OriginPro 8.6.0 (OriginLab, Northampton, MA, USA).
# [6] = Colorimetric cytotoxicity test, HEK293FT; assay type: cell-based; details: human, HEK293FT cells, intrinsic cytotoxicity
# Text: as §1, §2
# [7] = EZ4U colorimetric cytotoxicity test, HeLa; assay type: cell-based, human; details: human, HeLa cells; intrinsic cytotoxicity, compound alone, 3 days
# Text: as §1, §2
# [8] = target: T2, PARP1 (Homo sapiens, UniProt P09874); experiment: PARP1 autopoly(ADP-ribosyl)ation assay with [32P]-NAD+; assay type: biochemical; details: 0.5 mM concentration of the compound; read-out: PARP1 residual activity
# T2 construct: made in house; host or cells: E. coli
# Description: The next step of our study was to test the inhibitors for their ability to inhibit PARP1 and PARP2. UA and the 14 synthesized compounds were tested for the suppression of the ability of PARP1 and PARP2 to include a radioactive label into the acid-insoluble reaction product, poly(ADP-ribose) (PAR). […] The best effect we observed was for 9; the residual activity was 40 ± 5% under the reaction conditions (0.5 mM concentration of the compound), indicated in Materials and Methods.
# as §3
# The radioactive labeled [32P]-NAD+ was synthesized from α–[32P]-ATP according to [55]. The reaction of autopoly(ADP-ribosyl)ation was carried out as follows: for PARP1, 50 mM Tris-HCl, pH 8.0, 10 mM MgCl2, 150 mM NaCl, and 7 mM β-mercaptoethanol, as well as activated DNA 2 oe/mL, 0.3 mM [^32P]-NAD+ at 37 °C. The reaction was initiated by adding PARP1 to 200 nM and the reaction mixtures were incubated for 2 min. For PARP2: 50 mM Tris-HCl, pH 8.0, 3 mM spermin, 150 mM NaCl, and 7 mM β-mercaptoethanol, as well as activated DNA 2 oe/mL, 0.6 mM [^32P] NAD+ at 37 °C. […] The incorporation of radioactivity into the product was calculated using a Typhoon FLA 9500 scanner (GE Healthcare, Chicago, IL, USA). […]
# T2 sequence (P09874 whole entry): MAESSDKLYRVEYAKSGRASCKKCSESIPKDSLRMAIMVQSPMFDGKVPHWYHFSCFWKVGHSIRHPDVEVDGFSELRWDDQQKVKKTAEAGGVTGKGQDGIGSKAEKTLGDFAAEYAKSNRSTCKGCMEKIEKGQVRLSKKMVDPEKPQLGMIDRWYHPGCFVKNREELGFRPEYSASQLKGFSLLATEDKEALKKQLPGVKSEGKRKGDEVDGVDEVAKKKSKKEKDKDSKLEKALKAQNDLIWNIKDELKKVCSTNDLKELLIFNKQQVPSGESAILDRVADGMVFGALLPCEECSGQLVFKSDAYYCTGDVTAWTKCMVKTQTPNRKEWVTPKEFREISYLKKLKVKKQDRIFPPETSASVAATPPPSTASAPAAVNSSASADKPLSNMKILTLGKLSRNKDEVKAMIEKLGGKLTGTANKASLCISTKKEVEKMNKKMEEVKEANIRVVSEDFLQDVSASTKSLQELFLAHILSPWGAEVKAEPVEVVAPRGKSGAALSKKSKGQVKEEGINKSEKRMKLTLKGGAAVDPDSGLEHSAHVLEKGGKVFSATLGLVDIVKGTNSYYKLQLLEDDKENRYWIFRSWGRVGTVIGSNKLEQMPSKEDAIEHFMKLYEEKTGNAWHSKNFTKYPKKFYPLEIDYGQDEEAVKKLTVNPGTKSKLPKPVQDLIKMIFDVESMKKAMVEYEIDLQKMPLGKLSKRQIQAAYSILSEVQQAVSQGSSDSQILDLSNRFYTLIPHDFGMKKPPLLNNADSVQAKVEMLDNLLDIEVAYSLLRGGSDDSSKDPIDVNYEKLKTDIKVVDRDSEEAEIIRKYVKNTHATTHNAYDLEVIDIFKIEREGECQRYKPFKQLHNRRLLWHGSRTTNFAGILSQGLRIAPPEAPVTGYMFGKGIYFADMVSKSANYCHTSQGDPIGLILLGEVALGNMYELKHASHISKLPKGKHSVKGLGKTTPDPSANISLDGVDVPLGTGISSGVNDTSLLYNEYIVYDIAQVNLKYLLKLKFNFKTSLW
# T1 sequence (Q9NUW8 whole entry): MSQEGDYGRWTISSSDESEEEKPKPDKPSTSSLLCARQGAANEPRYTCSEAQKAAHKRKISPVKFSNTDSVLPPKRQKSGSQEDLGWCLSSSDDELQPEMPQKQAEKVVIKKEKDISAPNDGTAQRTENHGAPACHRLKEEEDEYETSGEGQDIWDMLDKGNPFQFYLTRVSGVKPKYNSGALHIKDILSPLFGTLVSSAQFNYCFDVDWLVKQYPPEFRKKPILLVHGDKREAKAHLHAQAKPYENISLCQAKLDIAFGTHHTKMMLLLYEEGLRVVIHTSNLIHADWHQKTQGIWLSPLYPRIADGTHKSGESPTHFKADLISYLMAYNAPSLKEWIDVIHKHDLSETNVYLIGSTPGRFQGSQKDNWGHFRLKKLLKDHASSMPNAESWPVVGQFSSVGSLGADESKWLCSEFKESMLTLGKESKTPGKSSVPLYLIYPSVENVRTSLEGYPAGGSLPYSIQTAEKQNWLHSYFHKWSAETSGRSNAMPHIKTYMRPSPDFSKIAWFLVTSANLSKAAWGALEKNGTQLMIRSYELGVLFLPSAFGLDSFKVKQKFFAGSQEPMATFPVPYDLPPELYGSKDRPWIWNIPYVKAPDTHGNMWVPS
IC50 [5],remaining activity at 500 µM [8],SMILES,"CC50 at 3 days ([1]; wild-type HEK293A cells, WT HEK293A cells, read-out: CC50 of Tpc)",CC50 [2],CC50 [3],CC50 at 3 days [4],"CC50 at 3 days ([1]; HEK293A cells, intrinsic cytotoxicity, 3 days, read-out: HEK293A CC50)",CC50 at 3 days [6],CC50 at 3 days [7]
,,"CC[C@@]1(O)C(=O)OCc2c1cc1n(c2=O)Cc2cc3c(CN(C)C)c(O)ccc3nc2-1 [Tpc, topotecan, reference compound]",0.027 ± 0.004 µM,2 µM,0.7 µM,0.05 ± 0.005 µM,,,
6.6 ± 1 µM,40 ± 5%,"CC(=O)C1=C(O)C=C2Oc3c(C(=O)CSC(N)=O)c(O)c(C)c(O)c3[C@@]2(C)C1=O [compound 9, (2R)-4-acetyl-10-[2-(carbamoylsulfanyl)acetyl]-5,11,13-trihydroxy-2,12-dimethyl-8-oxatricyclo[7.4.0.0^2,7]trideca-1(13),4,6,9,11-pentaen-3-one]",,,,,> 50 µM,7 ± 2 µM,13 ± 1 µM
